According to patent US20150344407A1, “FENDILINE DERIVATIVES AND METHODS OF USE THEREOF” (THE BOARD OF REGENTS OF THE UNIVERSITY OF TEXAS SYSTEM, priority 2012, published 2015):

Tests used:
MiaPaCa-2 cells = assay: Proliferation assay, pancreatic cancer cell line MiaPaCa-2; assay type: cell-based; details: Homo sapiens, MIA PaCa-2; 72 h, CyQUANT; oncogenic mutant K-Ras
Excerpt: (§1) FIG. 5A-5E—Concentration-response curves of 42, 68, 70, 72 and 73 on proliferation of five pancreatic cancer cell lines. BxPC-3 expresses wild type K-Ras, whereas the others express oncogenic mutant K-Ras. […] EC50 values for their inhibitory effect are tabulated. ND means that the EC50 value could not be determined within the dose range tested. See also Table 5.
(§2) Cell lines: Madine Darby Canine Kidney epithelial cells (MDCK) stably co-expressing mGFP-tagged full length oncogenic mutant K-Ras (GFP-K-RasG12V) and mCherry-tagged to the amino acids 179-189 of H-RasC181S, C184S (mCherry-CAAX, localizes primarily to endomembranes) were grown in DMEM-high glucose/sodium pyruvate/10% FBS. The medium was supplemented with 1× Penicillin/Streptomycin for fluorescence microscopy assays, to avoid any microbial contamination from the test compounds added. KLE and Hec50 cells were maintained in DMEM-F-12 medium supplemented with 10% FBS. Hec-1A and Hec-1B cells were grown in McCoy's 5a medium supplemented with 10% FBS. ESS-1 cells were grown in RPMI 1640 medium supplemented with 20% FBS. MPanc96 cells were grown in DMEM supplemented with 10% FBS, MiaPaCa-2 cells in DMEM supplemented with 10% FBS and 2.5% horse serum and all other cell lines were grown in RPMI 1640 supplemented with 10% FBS. All cancer cell media were supplemented with 1× Penicillin/Streptomycin. All cell lines were grown at 37° C. with 5% CO2.
(§3) Proliferation Assay: Cells were seeded in 96-well plates. After 24 h, fresh growth medium supplemented with 0.1% vehicle (DMSO), or various concentrations of drugs was added and cells were grown for 72 h. Cell numbers were quantified using the CyQUANT® Cell Proliferation Assay Kit (Life Technologies), according to the manufacturer's protocol. Fluorescence measurement was used as a measure of live cell number.
(§4) Based upon the concentration-response curves of five different compounds (42, 68, 70, 72, and 73) were tested for their effects on cell proliferation of five different pancreatic cell lines. These experiments were carried out as described in the Methods and Materials section.

HPAC cells = assay: Proliferation assay, pancreatic cancer cell line HPAC; assay type: cell-based; details: Homo sapiens, 72 h, CyQUANT, oncogenic mutant K-Ras
Excerpt: as §1, §2, §3, §4

MPanc-96 cells = assay: Proliferation assay, pancreatic cancer cell line MPanc-96; assay type: cell-based; details: MPANC96; 72 h, CyQUANT; oncogenic mutant K-Ras
Excerpt: as §1, §2, §3, §4

MOH cells = assay: Proliferation assay, pancreatic cancer cell line MOH; assay type: cell-based; details: 72 h, CyQUANT, oncogenic mutant K-Ras
Excerpt: as §1, §2, §3, §4

Hec50 cells = assay: Proliferation assay, endometrial cancer cell line Hec50; assay type: cell-based; details: 72 h, CyQUANT; Hec50 expresses oncogenic mutant K-Ras
Excerpt: (§5) FIG. 4A-4E—Concentration-response curves of 42, 68, 70, 72 and 73 on proliferation of five endometrial cancer cell lines. KLE and ESS-1 express wild type K-Ras and Hec-1A, Hec-1B and Hec50 express oncogenic mutant K-Ras. […] EC50 values for their inhibitory effect are tabulated. ND means that the EC50 value could not be determined within the dose range tested. See also Table 4.
as §2, §3
(§6) Based upon the concentration-response curves of five different compounds (42, 68, 70, 72, and 73) were tested for their effects on cell proliferation of five different endometrial cell lines. These experiments were carried out as described in the Methods and Materials section.

Hec-1A cells = assay: Proliferation assay, endometrial cancer cell line Hec-1A; assay type: cell-based; details: Homo sapiens; 72 h, CyQUANT; Hec-1A expresses oncogenic mutant K-Ras
Excerpt: as §5, §2, §3, §6

Hec-1B cells = assay: Proliferation assay, endometrial cancer cell line Hec-1B; assay type: cell-based; details: Homo sapiens; 72 h, CyQUANT; Hec-1B expresses oncogenic mutant K-Ras; ND = EC50 could not be determined within the dose range tested
Excerpt: as §5, §2, §3
Based upon the concentration-response curves of five different compounds (42, 68, 70, 72, and 73) were tested for their effects on cell proliferation of five different endometrial cell lines. […]

[1] = test system: phosphorylated ERK, a protein activated downstream of K-ras; assay: Western immunoblotting for pERK (inhibition of ERK activation); assay type: cell-based, canine; details: Canis lupus familiaris; 4 μM compound, 48 hours, MDCK cells stably expressing GFP-tagged K-rasG12V; whole cell lysates; normalized to vehicle-treated control; read-out: % Inhibition of ERK activation when treated with 4 μM compound
Description: (§7) To determine the effect of compounds on localization of K-ras, Mardine Darby canine kidney epithelial (MDCK) cells stably expressing GFP-tagged K-rasG12V (oncogenic K-ras) grown on cover slips were treated with vehicle or compound (4 μM) for 48 hours and fixed with 4% paraformaldehyde. The coverslips were mounted in Mowiol and imaged by confocal microscopy (Nikon A1) using a 60× objective. Images were analyzed by ImageJ software. Densitometric analysis was performed on images to determine the degree of K-ras mislocalization. To determine the effect of compounds on K-ras function, MDCK cells stably expressing GFP-tagged K-rasG12V were treated with vehicle or compound (4 μM) for 48 hours. Following treatment, whole cell lysates were prepared and subjected SDS-PAGE and western blotting to quantify the level of phosphorylated ERK, a protein activated downstream of K-ras. All calculations were normalized to vehicle-treated control.
Western Immunoblotting for pERK: 2×10^5 cells/well were seeded in 6-well cell culture plates. 24 h after seeding, fresh medium containing 1% vehicle (DMSO) or 4 μM test compound (1:100 dilution, such that DMSO was 1%) was added and incubated for 48 h. Cells were lysed in Buffer B (50 mM Tris [pH 7.5], 75 mM NaCl, 25 mM NaF, 5 mM MgCl2, 5 mM EGTA, 1 mM dithiothreitol, 100 μM NaVO4, 1% Nonidet P-40 plus protease inhibitors). SDS-PAGE and immunoblotting with the anti-phospho-p44/42 mitogen-activated protein kinase (MAPK) (ERK1/2) antibody was performed using 20 μg of each whole cell lysate. Signal was detected by enhanced chemiluminescence (SuperSignal; Pierce, Thermo Fisher Scientific, Rockford, Ill.) and imaged by FluorChemQ (Alpha Inotech, San Leandro, Calif.). Quantification of intensities was performed using FluorChemQ software. Results were normalized to vehicle-treated control.

[2] = target: T1, GFP-tagged K-rasG12V (oncogenic K-ras) in MDCK cells (Homo sapiens, UniProt P01116, G12V); assay: K-ras mislocalization, confocal fluorescence microscopy with densitometric analysis; assay type: cell-based, canine; details: 48 hours, MDCK cells stably expressing GFP-tagged K-rasG12V, normalized to vehicle-treated control; for inhibition at 4 µM: 4 μM compound, read-out: % Mislocalization of K-ras when treated with 4 μM compound
T1 construct: mGFP-tagged full length oncogenic mutant K-Ras (GFP-K-RasG12V); expressed in transfected cells
Description: FIGS. 1 & 2—Representative images showing degree of K-ras mislocalization with compound treatment (images corresponds with column 3 of Table 2). MDCK cells stably expressing GFP-tagged K-rasG12V were treated with vehicle or compound (4 μM) for 48 hours and fixed with 4% paraformaldehyde. The coverslips were mounted in Mowiol and imaged by confocal microscopy (Nikon A1) using a 60× objective. The number above each image corresponds the fendiline derivative code.
as §7
Fluorescence microscopy: 2×10^5 or 1×10^5 cells/well were seeded in 6- or 12-well cell culture plates, respectively, containing glass coverslips. 24 h after seeding, fresh medium containing 1% vehicle (Dimethyl sulfoxide, DMSO) or 4 μM test compound (1:100 dilution, such that DMSO was 1%) was added and incubated for 48 h, following which the cells were fixed with 4% paraformaldehyde and coverslips were mounted in Mowiol. Cells were imaged in the GFP wavelength (488 nm) using a confocal microscope (Nikon A1) with 60× objective. Images were saved in tagged imaged file format (tiff) and analyzed by ImageJ software. The densitometric ratio of plasma membrane localized K-Ras versus total K-Ras was calculated and normalized to vehicle-treated control.

## COc1ccc([C@@H](C)N(CC=C(c2ccccc2)c2ccccc2)CC=C(c2ccccc2)c2ccccc2)cc1 [Compound 68, (R)-N-(3,3-diphenylallyl)-N-(1-(4-methoxyphenyl)ethyl)-3,3-diphenylprop-2-en-1-amine]
MiaPaCa-2 cells
  EC50: 1150 nM
HPAC cells
  EC50: 105 nM
MPanc-96 cells
  EC50: 912 nM
MOH cells
  EC50: 931 nM
Hec50 cells
  EC50: 1.58 nM
Hec-1A cells
  EC50: 211 nM

## C(CN(CC=C(c1ccccc1)c1ccccc1)[C@@H]1CCc2ccccc21)=C(c1ccccc1)c1ccccc1 [Compound 73, (R)—N,N-bis(3,3-diphenylallyl)-2,3-dihydro-1H-inden-1-amine]
MiaPaCa-2 cells
  EC50: 894 nM
HPAC cells
  EC50: 346 nM
Hec-1B cells
  EC50: 330 nM
MPanc-96 cells
  EC50: 239 nM
MOH cells
  EC50: 616 nM
Hec50 cells
  EC50: 412 nM
Hec-1A cells
  EC50: 19.6 nM

## C[C@@H](NC/C=C(\c1ccccc1)c1ccc(N)cc1)c1ccccc1 [Compound 56, (R,E)-4-(1-phenyl-3-((1-phenylethyl)amino)prop-1-en-1-yl)aniline]
[1]
  inhibition at 4 µM: -191%
[2]
  inhibition at 4 µM: 17.3%

## CC(NCC=C(c1ccccc1)c1ccccc1)c1ccc(F)cc1 (centres unmarked) [Compound 27, N-(1-(4-fluorophenyl)ethyl)-3,3-diphenylprop-2-en-1-amine]
[1]
  inhibition at 4 µM: 49.3%
[2]
  inhibition at 4 µM: 45.2%

## C[C@@H](NC/C=C/c1ccccc1)c1ccc2ccccc2c1 [Compound 35, (R,E)-N-(1-(naphthalen-2-yl)ethyl)-3-phenylprop-2-en-1-amine]
[1]
  inhibition at 4 µM: -21.6%
[2]
  inhibition at 4 µM: 26.1%

## CC(NCC=C(c1ccccc1)c1ccccc1)c1ccc(Br)cc1 (centres unmarked) [Compound 26, N-(1-(4-bromophenyl)ethyl)-3,3-diphenylprop-2-en-1-amine]
[1]
  inhibition at 4 µM: 43.5%
[2]
  inhibition at 4 µM: 44.8%

## COC(=O)[C@H](NCC=C(c1ccccc1)c1ccccc1)c1ccc(F)cc1 [Compound 57, (R)-methyl 2-((3,3-diphenylallyl)amino)-2-(4-fluorophenyl)acetate]
[1]
  inhibition at 4 µM: -105%
[2]
  inhibition at 4 µM: 12.7%

## C[C@@H](NCC=C(c1ccccc1)c1ccccc1)c1ccc(Br)cc1 [Compound 44, (R)—N-(1-(4-bromophenyl)ethyl)-3,3-diphenylprop-2-en-1-amine]
[1]
  inhibition at 4 µM: 38.1%
[2]
  inhibition at 4 µM: 38.1%

## C/C=C(/CN[C@H](C)c1ccccc1)c1ccccc1 [Compound 37, (R,E)-2-phenyl-N-(1-phenylethyl)but-2-en-1-amine]
[1]
  inhibition at 4 µM: 18.9%
[2]
  inhibition at 4 µM: 6.82%

## C[C@H](NCC=C(c1ccccc1)c1ccccc1)c1ccccc1 [Compound 17, (S)-3,3-diphenyl-N-(1-phenylethyl)prop-2-en-1-amine]
[1]
  inhibition at 4 µM: -51.9%
[2]
  inhibition at 4 µM: 8.27%

## C[C@@H](NCC=C(c1ccccc1)c1ccccc1)c1ccccc1 [Compound 16, (R)-3,3-diphenyl-N-(1-phenylethyl)prop-2-en-1-amine]
[1]
  inhibition at 4 µM: 58.4%
[2]
  inhibition at 4 µM: 39.3%

## CC(OCCC(c1ccccc1)c1ccccc1)c1ccccc1 (centres unmarked) [Compound 13]
[1]
  inhibition at 4 µM: 28.9%
[2]
  inhibition at 4 µM: 32%

## C[C@@H](NC/C=C/c1ccccc1)c1cccc2ccccc12 [Compound 34, (R,E)-N-(1-(naphthalen-1-yl)ethyl)-3-phenylprop-2-en-1-amine]
[1]
  inhibition at 4 µM: 18.9%
[2]
  inhibition at 4 µM: 7.94%

## CC(C)=CCC/C(C)=C/CO[C@H](C)c1ccccc1 [Compound 20, (R,E)-(1-((3,7-dimethylocta-2,6-dien-1-yl)oxy)ethyl)benzene]
[1]
  inhibition at 4 µM: -5.12%
[2]
  inhibition at 4 µM: 14.6%

## C[C@@H](OC/C=C/c1ccccc1)c1ccccc1 [Compound 24, (R,E)-(1-(cinnamyloxy)ethyl)benzene]
[1]
  inhibition at 4 µM: 7.19%
[2]
  inhibition at 4 µM: 18%

## C[C@@H](NCCC(c1ccccc1)c1ccccc1)c1ccccc1.Cl [Compound 08, (R)-3,3-diphenyl-N-(1-phenylethyl)propan-1-amine hydrochloride]
[1]
  inhibition at 4 µM: 38.2%
[2]
  % Mislocalization of K-ras when treated with 4 μM compound: 36.05%

## C[C@H](c1cccc(Cl)c1)N(CC=C(c1ccccc1)c1ccccc1)CC=C(c1ccccc1)c1ccccc1 [Compound 70, (R)—N-(1-(3-chlorophenyl)ethyl)-N-(3,3-diphenylallyl)-3,3-diphenylprop-2-en-1-amine]
MiaPaCa-2 cells
  EC50: 1500 nM
HPAC cells
  EC50: 220 nM
Hec-1B cells
  EC50: 10700 nM
MPanc-96 cells
  EC50: 814 nM
MOH cells
  EC50: 663 nM
Hec50 cells
  EC50: 3310 nM
Hec-1A cells
  EC50: 38.2 nM

## C[C@@H](NC/C=C(\c1ccccc1)c1ccc([N+](=O)[O-])cc1)c1ccccc1 [Compound 55, (R,E)-3-(4-nitrophenyl)-3-phenyl-N-(1-phenylethyl)prop-2-en-1-amine]
[1]
  inhibition at 4 µM: -36.6%
[2]
  inhibition at 4 µM: 12.3%

## COC(=O)[C@H](NCC=C(c1ccccc1)c1ccccc1)c1ccccc1 [Compound 42, (R)-methyl 2-((3,3-diphenylallyl)amino)-2-phenylacetate]
MiaPaCa-2 cells
  EC50: 2410 nM
[1]
  inhibition at 4 µM: 44%
HPAC cells
  EC50: 944 nM
Hec-1B cells
  EC50: 524 nM
MPanc-96 cells
  EC50: 1120 nM
MOH cells
  EC50: 1040 nM
[2]
  inhibition at 4 µM: 50%
Hec50 cells
  EC50: 423 nM
Hec-1A cells
  EC50: 7.39 nM
